The first test concerns the target T1, RpfB (catalytic domain, residues 280-362) (Mycobacterium tuberculosis, UniProt P9WG29). Put plainly: intrinsic tryptophan fluorescence quenching (Stern-Volmer). The class given is binding. The note with it: 50 mM phosphate buffer, pH 6.0; room temperature; RpfB 25.6 μg/ml; excitation 280 nm.
T1 sequence (P9WG29 280-362): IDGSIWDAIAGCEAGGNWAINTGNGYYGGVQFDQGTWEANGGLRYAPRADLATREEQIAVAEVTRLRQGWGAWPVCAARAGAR
With `N#CSc1ccc(C(=O)c2ccc(SC#N)c([N+](=O)[O-])c2)cc1[N+](=O)[O-]` [IV, Bis(4-thiocyano-3-nitrophenyl)methanone], the “intrinsic tryptophan fluorescence quenching (Stern-Volmer)” value was “confirmed by quenching of Rpf’s autofluorescence by the compound (IV)”.

For the next test, the target named is T1, RpfB (catalytic domain, residues 280-362). Briefly: release of fluorescent fragments from FITC-labelled peptidoglycan. To be noted: read-out: IC50 Rpf-hydrolysis of PG, μM / M. tuberculosis. Type of test: biochemical. From the text:
release of fluorescent fragments from FITC-labelled peptidoglycan on RpfB (catalytic domain, residues 280-362)
For the compound `N#CSc1cccc(C(=O)c2cccc(SC#N)c2)c1` [VI, Bis(3-thiocyanophenyl)methanone], the IC50 amounted to 3.6 ± 1.2 µM.
On the same count and under the same terms, in the case of `N#CSc1ccc(C(=O)c2ccc(SC#N)c([N+](=O)[O-])c2)cc1[N+](=O)[O-]` [IV, Bis(4-thiocyano-3-nitrophenyl)methanone] it was 5.8 ± 2 µM; in that of `N#CSc1ccc(C(=O)c2ccccc2)cc1` [III, 4-Benzoylphenyl thiocyanate], 1.2 ± 0.5 µM; in that of `N#CSc1ccc(C(=O)c2ccc(SC#N)cc2)cc1` [V, Bis(4-thiocyanophenyl)methanone], 4.3 ± 2.4 µM.
On the same count and under the same terms, the same measure for `N#CSc1cccc(C(=O)c2ccccc2)c1` [II, 3-Benzoylphenyl thiocyanate]: 1.7 ± 0.4 µM.

These data come from PMC5667462, “Benzoylphenyl thiocyanates are new, effective inhibitors of the mycobacterial resuscitation promoting factor B protein” (Annals of Clinical Microbiology and Antimicrobials, 2017).
